Source: patent US20220409620A1, “REDUCING IMMUNOGENICITY TO PEGLOTICASE” (Horizon Pharma Rheumatology LLC, priority 2016, published 2022)
Where two headings read alike, the source gives them in different places.

What was measured:
patients = settings: cited from earlier work
[1] = system: adult patients with uncontrolled gout; assay: Tender and swollen joint counts, open-label study; type: in vivo, human
Method: Tender and Swollen Joint Counts: Tender and swollen (excludes hip) joint counts were recorded at the Week −4 or week −6 (prior to the first dose of MTX) Visit during the MTX Run-in Period for the open-label and randomized studies, respectively; prior to pegloticase infusion at the Day 1 and Weeks 14, 24 and 36 Visits, or at the Day 1 and weeks 6, 14, 20, 24, 30, 36, and 44 visits during the Pegloticase+IMM Period for the open-label and randomized studies, respectively; and at the End of Pegloticase Infusions Visit (if applicable) and the Week 52/End of Study/Early Termination Visit and the Post Treatment 3 and 6 month Follow-up visits. Tender and swollen joint counts were assessed by physical examination.

[2] = Early Termination Visit, Pegloticase Baseline, mITT Population
[3] = End of Pegloticase Infusions Visit, Pegloticase Baseline, mITT Population
[4] = Week 14, Pegloticase Baseline, mITT Population
[5] = Week 24, Pegloticase Baseline, mITT Population
[6] = Week 36, Pegloticase Baseline, mITT Population
[7] = Week 52/ET, Pegloticase Baseline, mITT Population
[8] = mITT, Early Termination Visit, n=3
[9] = mITT, End of Pegloticase Infusions Visit, n=2

Compound: CN(Cc1cnc2nc(N)nc(N)c2n1)c1ccc(C(=O)N[C@@H](CCC(=O)O)C(=O)O)cc1 [MTX, methotrexate]
- Increased susceptibility to infection (patients; RA): < 1%
- Leukopenia (patients; RA): 28%
- Nausea and vomiting (patients; RA): 12%
- Increased susceptibility to infection (patients; renal transplant): 20%
- Leukopenia (patients; renal transplant): > 50%
- neoplasia (lymphoma) (patients; renal transplant): 0.5%
- neoplasia (other than lymphoma) (patients; renal transplant): 3%

Compound: pegloticase
- Swollen Joint Count, Change from Baseline, Mean (SD) [1, 2]: −3.3 (3.06)
- Swollen Joint Count, Change from Baseline, Median [1, 2]: −4.0
- Swollen Joint Count, Observed, Mean (SD) [1, 2]: 0.7 (0.58)
- Swollen Joint Count, Observed, Median [1, 2]: 1.0
- Tender Joint Count, Change from Baseline, Mean (SD) [1, 2]: −2.7 (4.16)
- Tender Joint Count, Change from Baseline, Median [1, 2]: −4.0
- Tender Joint Count, Observed, Mean (SD) [1, 2]: 7.7 (8.96)
- Tender Joint Count, Observed, Median [1, 2]: 3.0
- Swollen Joint Count, Change from Baseline, Mean (SD) [1, 3]: −2.0 (2.83)
- Swollen Joint Count, Change from Baseline, Median [1, 3]: −2.0
- Swollen Joint Count, Observed, Mean (SD) [1, 3]: 0.0 (0.00)
- Swollen Joint Count, Observed, Median [1, 3]: 0.0
- Tender Joint Count, Change from Baseline, Mean (SD) [1, 3]: −3.0 (5.66)
- Tender Joint Count, Change from Baseline, Median [1, 3]: −3.0
- Tender Joint Count, Observed, Mean (SD) [1, 3]: 2.0 (2.83)
- Tender Joint Count, Observed, Median [1, 3]: 2.0
- Swollen Joint Count, Change from Baseline, Mean (SD) [1, 4]: −3.6 (7.04)
- Swollen Joint Count, Change from Baseline, Median [1, 4]: −2.5
- Swollen Joint Count, Observed, Mean (SD) [1, 4]: 1.7 (3.73)
- Swollen Joint Count, Observed, Median [1, 4]: 0.0
- Tender Joint Count, Change from Baseline, Mean (SD) [1, 4]: −5.1 (8.12)
- Tender Joint Count, Change from Baseline, Median [1, 4]: −5.0
- Tender Joint Count, Observed, Mean (SD) [1, 4]: 4.6 (6.16)
- Tender Joint Count, Observed, Median [1, 4]: 2.0
- Swollen Joint Count, Change from Baseline, Mean (SD) [1, 5]: −5.1 (6.66)
- Swollen Joint Count, Change from Baseline, Median [1, 5]: −3.0
- Swollen Joint Count, Observed, Mean (SD) [1, 5]: 0.5 (1.21)
- Swollen Joint Count, Observed, Median [1, 5]: 0.0
- Tender Joint Count, Change from Baseline, Mean (SD) [1, 5]: −6.8 (8.16)
- Tender Joint Count, Change from Baseline, Median [1, 5]: −4.0
- Tender Joint Count, Observed, Mean (SD) [1, 5]: 2.6 (3.88)
- Tender Joint Count, Observed, Median [1, 5]: 0.0
- Swollen Joint Count, Change from Baseline, Mean (SD) [1, 6]: −6.2 (8.15)
- Swollen Joint Count, Change from Baseline, Median [1, 6]: −4.0
- Swollen Joint Count, Observed, Mean (SD) [1, 6]: 0.1 (0.33)
- Swollen Joint Count, Observed, Median [1, 6]: 0.0
- Tender Joint Count, Change from Baseline, Mean (SD) [1, 6]: −7.8 (8.94)
- Tender Joint Count, Change from Baseline, Median [1, 6]: −4.0
- Tender Joint Count, Observed, Mean (SD) [1, 6]: 2.1 (4.54)
- Tender Joint Count, Observed, Median [1, 6]: 0.0
- Swollen Joint Count, Change from Baseline, Mean (SD) [1, 7]: −13.0 (13.00)
- Swollen Joint Count, Change from Baseline, Median [1, 7]: −13.0
- Swollen Joint Count, Observed, Mean (SD) [1, 7]: 0.0 (0.00)
- Swollen Joint Count, Observed, Median [1, 7]: 0.0
- Tender Joint Count, Change from Baseline, Mean (SD) [1, 7]: −16.0 (17.52)
- Tender Joint Count, Change from Baseline, Median [1, 7]: −15.0
- Tender Joint Count, Observed, Mean (SD) [1, 7]: 5.3 (3.21)
- Tender Joint Count, Observed, Median [1, 7]: 4.0
- Swollen Joint Count, Change from Methotrexate Baseline, Mean (SD) ([1]; mITT, Day 1, n=14): −0.7 (5.21)
- Swollen Joint Count, Change from Methotrexate Baseline, Median ([1]; mITT, Day 1, n=14): 0.5
- Swollen Joint Count, Observed, Mean (SD) ([1]; mITT, Day 1, n=14): 5.3 (6.94)
- Swollen Joint Count, Observed, Median ([1]; mITT, Day 1, n=14): 3.5
- Tender Joint Count, Change from Methotrexate Baseline, Mean (SD) ([1]; mITT, Day 1, n=14): −1.9 (9.75)
- Tender Joint Count, Change from Methotrexate Baseline, Median ([1]; mITT, Day 1, n=14): 0.0
- Tender Joint Count, Observed, Mean (SD) ([1]; mITT, Day 1, n=14): 9.6 (11.03)
- Tender Joint Count, Observed, Median ([1]; mITT, Day 1, n=14): 7.0
- Swollen Joint Count, Change from Methotrexate Baseline, Mean (SD) [1, 8]: −1.0 (1.73)
- Swollen Joint Count, Change from Methotrexate Baseline, Median [1, 8]: 0.0
- Swollen Joint Count, Observed, Mean (SD) [1, 8]: 0.7 (0.58)
- Swollen Joint Count, Observed, Median [1, 8]: 1.0
- Tender Joint Count, Change from Methotrexate Baseline, Mean (SD) [1, 8]: 0.7 (5.13)
- Tender Joint Count, Change from Methotrexate Baseline, Median [1, 8]: 2.0
- Tender Joint Count, Observed, Mean (SD) [1, 8]: 7.7 (8.96)
- Tender Joint Count, Observed, Median [1, 8]: 3.0
- Swollen Joint Count, Change from Methotrexate Baseline, Mean (SD) [1, 9]: −7.0 (4.24)
- Swollen Joint Count, Change from Methotrexate Baseline, Median [1, 9]: −7.0
- Swollen Joint Count, Observed, Mean (SD) [1, 9]: 0.0 (0.00)
- Swollen Joint Count, Observed, Median [1, 9]: 0.0
- Tender Joint Count, Change from Methotrexate Baseline, Mean (SD) [1, 9]: −12.0 (7.07)
- Tender Joint Count, Change from Methotrexate Baseline, Median [1, 9]: −12.0
- Tender Joint Count, Observed, Mean (SD) [1, 9]: 2.0 (2.83)
- Tender Joint Count, Observed, Median [1, 9]: 2.0
- Swollen Joint Count, Change from Methotrexate Baseline, Mean (SD) ([1]; mITT, Week 14, n=14): −4.3 (7.38)
- Swollen Joint Count, Change from Methotrexate Baseline, Median ([1]; mITT, Week 14, n=14): −2.0
- Swollen Joint Count, Observed, Mean (SD) ([1]; mITT, Week 14, n=14): 1.7 (3.73)
- Swollen Joint Count, Observed, Median ([1]; mITT, Week 14, n=14): 0.0
- Tender Joint Count, Change from Methotrexate Baseline, Mean (SD) ([1]; mITT, Week 14, n=14): −7.0 (14.20)
- Tender Joint Count, Change from Methotrexate Baseline, Median ([1]; mITT, Week 14, n=14): 0.0
- Tender Joint Count, Observed, Mean (SD) ([1]; mITT, Week 14, n=14): 4.6 (6.16)
- Tender Joint Count, Observed, Median ([1]; mITT, Week 14, n=14): 2.0
- Swollen Joint Count, Change from Methotrexate Baseline, Mean (SD) ([1]; mITT, Week 24, n=11): −6.6 (9.03)
- Swollen Joint Count, Change from Methotrexate Baseline, Median ([1]; mITT, Week 24, n=11): −3.0
- Swollen Joint Count, Observed, Mean (SD) ([1]; mITT, Week 24, n=11): 0.5 (1.21)
- Swollen Joint Count, Observed, Median ([1]; mITT, Week 24, n=11): 0.0
- Tender Joint Count, Change from Methotrexate Baseline, Mean (SD) ([1]; mITT, Week 24, n=11): −10.2 (14.27)
- Tender Joint Count, Change from Methotrexate Baseline, Median ([1]; mITT, Week 24, n=11): −4.0
- Tender Joint Count, Observed, Mean (SD) ([1]; mITT, Week 24, n=11): 2.6 (3.88)
- Tender Joint Count, Observed, Median ([1]; mITT, Week 24, n=11): 0.0
- Swollen Joint Count, Change from Methotrexate Baseline, Mean (SD) ([1]; mITT, Week 36, n=9): −7.8 (10.81)
- Swollen Joint Count, Change from Methotrexate Baseline, Median ([1]; mITT, Week 36, n=9): −3.0
- Swollen Joint Count, Observed, Mean (SD) ([1]; mITT, Week 36, n=9): 0.1 (0.33)
- Swollen Joint Count, Observed, Median ([1]; mITT, Week 36, n=9): 0.0
- Tender Joint Count, Change from Methotrexate Baseline, Mean (SD) ([1]; mITT, Week 36, n=9): −12.3 (14.56)
- Tender Joint Count, Change from Methotrexate Baseline, Median ([1]; mITT, Week 36, n=9): −7.0
- Tender Joint Count, Observed, Mean (SD) ([1]; mITT, Week 36, n=9): 2.1 (4.54)
- Tender Joint Count, Observed, Median ([1]; mITT, Week 36, n=9): 0.0
- Swollen Joint Count, Change from Methotrexate Baseline, Mean (SD) ([1]; mITT, Week 52/ET, n=3): −21.0 (9.64)
- Swollen Joint Count, Change from Methotrexate Baseline, Median ([1]; mITT, Week 52/ET, n=3): −25.0
- Swollen Joint Count, Observed, Mean (SD) ([1]; mITT, Week 52/ET, n=3): 0.0 (0.00)
- Swollen Joint Count, Observed, Median ([1]; mITT, Week 52/ET, n=3): 0.0
- Tender Joint Count, Change from Methotrexate Baseline, Mean (SD) ([1]; mITT, Week 52/ET, n=3): −24.0 (21.38)
- Tender Joint Count, Change from Methotrexate Baseline, Median ([1]; mITT, Week 52/ET, n=3): −17.0
- Tender Joint Count, Observed, Mean (SD) ([1]; mITT, Week 52/ET, n=3): 5.3 (3.21)
- Tender Joint Count, Observed, Median ([1]; mITT, Week 52/ET, n=3): 4.0
